Assay results reported in patent US7691575B2, “Immunomodulatory compositions” (Academia Sinica, priority 2005, dated 2010).

Test system: human IFN γ promoter
Experiment: IFN γ promoter reporter assay (dual luciferase, pIFN γ-Luc/pRL-TK) in transfected Jurkat cells
Type: cell-based
Description: Jurkat cells were transfected with pIFN γ-Luc and pRL-TK, or pIL-2 and pRL-TK, plasmid DNA constructs using electroporation and then treated with different plant crude extracts, which were prepared using boiling water. The fold induction was expressed in arbitrary units as the ratio of firefly luciferase activity (encoded by pIFN γ-Luc) to that of Renilla luciferase (pRL-TK).
A 615 base pair (bp) DNA fragment containing the human IFN γ promoter region from bp −487 to +128 (SEQ ID NO:1) was amplifed by polymerase chain reaction (PCR) using the specific primers (5′-[…]-3′ (SEQ ID NO:3) and 5′-[…]-3′ (SEQ ID NO:4))and human genomic DNA, isolated from blood, as a template. […]
Firefly and Renilla luciferase activities were measured in cell lysates made from transfected T-cells that were exposed to a plant extract or phytocompound, or underwent negative control treatment. […] The protein concentration in each lysate was determined using a Bradford reagent protein assay (Bio-Rad, Calif.).
Samples of ten micrograms of cell lysate protein were subjected to a dual luciferase reporter assay according to the manufacturer's instructions (Promega, Wis.). Firefly and Renilla luciferase activities were determined in each sample with a luminometer. […] The IFN γ or IL-2 promoter activity for each sample was calculated as a ratio of firefly luciferase to Renilla luciferase-dependent luminescence.

SMILES | IFN γ promoter activity (100 μg/mL, relative to untreated cells, p<0.001) | IFN γ promoter activity (concentration not given)
COc1ccc(-c2oc3cc(O[C@@H]4O[C@H](CO)[C@@H](O)[C@H](O)[C@H]4O)c(OC)c(O)c3c(=O)c2OC)cc1O [Centaurein, centaurein] | highly significant increase | 
O=C(/C=C/c1ccc(O)c(O)c1)O[C@@H]1[C@H](O)C[C@@](O)(C(=O)O)C[C@H]1OC(=O)/C=C/c1ccc(O)c(O)c1 [4,5-di-O-caffeoylquinic acid] |  | did not induce a significant increase
